Laboratory results: patent US20080118980A1, “Estrogen Enhancing Differentiation of Human Mesenchymal Stromal Cells and Adipose-derived Stromal Cells” (The Board of Trustees of the University of Illinois,, priority 2006, published 2008)

Test system: human bone marrow mesenchymal stem cells (MSCs)
Assay: Proliferation of human bone marrow MSCs in basic medium with E2 or E3 (MTS, Example 3)
Format: cell-based
Description: This study investigates the mitogenic effects of estrogen receptor ligands on human bone marrow MSCs that is not contacted with osteogenic or adipogenic medium. Purified human bone marrow mesenchymal stem cells (MSCs) were purchased commercially. MSCs were respectively exposed to basic medium (DMEM+10% FBS+1% antibiotics), and basic medium supplement with 10^−6 and 10^−9 M 17-β estradiol (E2) and estriol (E3) for approximately one week. Then, various cells were plated into 96-well plates in 500 cells/well and continued to be exposed to the media. After 4 days, cell densities were measured by MTS methods and compared to initial densities. FIG. 8 illustrates the increase of the number of MSCs after being treated with basic medium and basic medium supplemented with E2 or E3.

SMILES: C[C@]12CC[C@@H]3c4ccc(O)cc4CC[C@H]3[C@@H]1CC[C@@H]2O [E2, 17-β estradiol]
- cell proliferation (MTS assay and cell counting) (10^−6 and 10^−9 M, about one week then 4 days in 96-well plates, FIG. 8): greatly increased
- differentiation capabilities (adipogenic and osteogenic) of modulated MSCs (vs controls): maintain their differentiation capabilities
